Source: patent US8686150B2 (Sanofi, priority 2011, dated 2014)

Target: T1, human full-length recombinant PKC βII (Homo sapiens, UniProt P05771)
T1 construct: Active human full-length recombinant PKC βII; purchased Invitrogen GmbH, Darmstadt, Germany
Assay: Determination of PKC βII inhibition (Caliper mobility-shift kinase assay, Fluorescein-RFARKGSLRQKNV peptide substrate)
Format: biochemical
Conditions: example compounds at a final concentration of 1.14 μM (±0.15 μM)
In short: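 Compounds were tested at 1.14 μM final. Enzyme was activated by PS, DAG and CaCl2 in Hepes pH 7.4 with MgCl2, with substrate 3 μM and ATP 120 μM as pre-mix concentrations. After 60 min at 32 °C and an EDTA stop, Caliper separation gave fractional turnover, which was normalised to no-compound and no-enzyme controls.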

T1 sequence (P05771 1-673 isoform P05771-2): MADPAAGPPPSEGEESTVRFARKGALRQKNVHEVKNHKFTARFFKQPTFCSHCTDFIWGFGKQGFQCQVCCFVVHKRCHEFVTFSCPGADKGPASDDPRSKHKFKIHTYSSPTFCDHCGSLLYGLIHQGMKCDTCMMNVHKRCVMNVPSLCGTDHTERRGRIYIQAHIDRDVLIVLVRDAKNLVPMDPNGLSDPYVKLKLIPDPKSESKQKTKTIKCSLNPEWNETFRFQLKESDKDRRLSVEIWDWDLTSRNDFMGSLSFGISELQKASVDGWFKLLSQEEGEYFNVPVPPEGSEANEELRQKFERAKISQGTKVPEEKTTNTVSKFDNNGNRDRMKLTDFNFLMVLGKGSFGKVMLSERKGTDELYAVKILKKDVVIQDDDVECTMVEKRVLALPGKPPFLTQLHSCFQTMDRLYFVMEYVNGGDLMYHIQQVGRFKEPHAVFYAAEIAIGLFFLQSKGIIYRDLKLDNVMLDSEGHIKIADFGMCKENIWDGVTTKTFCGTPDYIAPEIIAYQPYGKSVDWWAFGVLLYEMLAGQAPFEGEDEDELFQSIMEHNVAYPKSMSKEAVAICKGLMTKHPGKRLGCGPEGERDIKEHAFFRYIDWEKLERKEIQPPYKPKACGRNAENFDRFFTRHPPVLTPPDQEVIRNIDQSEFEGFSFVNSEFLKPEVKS

| Structure (SMILES) | inhibition at 1.14 µM |
| --- | --- |
| COc1cccc(C2CNCCN2C(=O)c2cc(-c3ccc(O)cc3)nc3[nH]nc(C)c23)c1 (stereo not drawn) [Example 72, [6-(4-Hydroxy-phenyl)-3-methyl-1H-pyrazolo[3,4-b]pyridin-4-yl]-[2-(3-methoxy-phenyl)-piperazin-1-yl]-methanone] | 94% |
| Cc1n[nH]c2nc(-c3ccc(O)cc3)cc(C(=O)N3CCC4CNCC43)c12 (stereo not drawn) [Example 226, (Hexahydro-pyrrolo[3,4-b]pyrrol-1-yl)-[6-(4-hydroxy-phenyl)-3-methyl-1H-pyrazolo[3,4-b]pyridin-4-yl]-methanone] | 95% |
| CCN1CC2CC1CN2C(=O)c1cc(-c2ccc(O)cc2)nc2[nH]nc(C)c12 (stereo not drawn) [Example 268, (5-Ethyl-2,5-diaza-bicyclo[2.2.1]hept-2-yl)-[6-(4-hydroxy-phenyl)-3-methyl-1H-pyrazolo[3,4-b]pyridin-4-yl]-methanone] | 80% |
| Cc1n[nH]c2nc(-c3ccc(O)cc3)cc(C(=O)N3CCNCC3c3ccc(F)c(F)c3)c12 (stereo not drawn) [Example 92, [2-(3,4-Difluoro-phenyl)-piperazin-1-yl]-[6-(4-hydroxy-phenyl)-3-methyl-1H-pyrazolo[3,4-b]pyridin-4-yl]-methanone] | 95% |
| Cc1n[nH]c2nc(-c3ccc(O)cc3)cc(C(=O)NCC3CNC3)c12 [Example 98, 6-(4-Hydroxy-phenyl)-3-methyl-1H-pyrazolo[3,4-b]pyridine-4-carboxylic acid (azetidin-3-ylmethyl)-amide] | 89% |
| Cc1n[nH]c2nc(-c3ccc(O)cc3)cc(C(=O)N3CCNC[C@H]3c3ccccc3)c12 [Example 28, [6-(4-Hydroxy-phenyl)-3-methyl-1H-pyrazolo[3,4-b]pyridin-4-yl]-((R)-2-phenyl-piperazin-1-yl)-methanone] | 99% |
| Cc1n[nH]c2nc(-c3ccc(O)c(F)c3)cc(C(=O)N3CCC(N)CC3)c12 [Example 304, (4-Amino-piperidin-1-yl)-[6-(3-fluoro-4-hydroxy-phenyl)-3-methyl-1H-pyrazolo[3,4-b]pyridin-4-yl]-methanone] | 91% |
| Cc1n[nH]c2nc(-c3ccc(O)cc3)cc(C(=O)N3CC[C@H](N(C)C)C3)c12 [Example 239, ((S)-3-Dimethylamino-pyrrolidin-1-yl)-[6-(4-hydroxy-phenyl)-3-methyl-1H-pyrazolo[3,4-b]pyridin-4-yl]-methanone] | 78% |
| Cc1n[nH]c2nc(-c3ccc(O)c(F)c3)cc(C(=O)NC3CCC(N)CC3)c12 (stereo not drawn) [Example 338, 6-(3-Fluoro-4-hydroxy-phenyl)-3-methyl-1H-pyrazolo[3,4-b]pyridine-4-carboxylic acid (4-amino-cyclohexyl)-amide] | 68% |
| Cc1n[nH]c2nc(-c3ccc(O)cc3)cc(C(=O)N3CCN(CCS(C)(=O)=O)CC3)c12 [Example 271, [6-(4-Hydroxy-phenyl)-3-methyl-1H-pyrazolo[3,4-b]pyridin-4-yl]-[4-(2-methanesulfonyl-ethyl)-piperazin-1-yl]-methanone] | 66% |
| Cc1n[nH]c2nc(-c3ccc(O)cc3F)cc(C(=O)N3CC(C)NCC34CCCC4)c12 (stereo not drawn) [Example 438, [6-(2-Fluoro-4-hydroxy-phenyl)-3-methyl-1H-pyrazolo[3,4-b]pyridin-4-yl]-(8-methyl-6,9-diaza-spiro[4.5]dec-6-yl)-methanone] | 98% |
| Cc1cc(O)ccc1-c1cc(C(=O)N2CCNCC2c2ccc(F)cc2F)c2c(C)n[nH]c2n1 (stereo not drawn) [Example 152, [2-(2,4-Difluoro-phenyl)-piperazin-1-yl]-[6-(4-hydroxy-2-methyl-phenyl)-3-methyl-1H-pyrazolo[3,4-b]pyridin-4-yl]-methanone] | 94% |
| Cc1cc(O)ccc1-c1cc(C(=O)N2CCN[C@@H](C)C2)c2c(C)n[nH]c2n1 [Example 145, [6-(4-Hydroxy-2-methyl-phenyl)-3-methyl-1H-pyrazolo[3,4-b]pyridin-4-yl]-((S)-3-methyl-piperazin-1-yl)-methanone] | 92% |
| Cc1n[nH]c2nc(-c3ccc(O)c(F)c3)cc(C(=O)N3CCCC4CNCCC43)c12 (stereo not drawn) [Example 324, [6-(3-Fluoro-4-hydroxy-phenyl)-3-methyl-1H-pyrazolo[3,4-b]pyridin-4-yl]-(octahydro-[1,6]naphthyridin-1-yl)-methanone] | 69% |
| CCc1n[nH]c2nc(-c3ccc(O)cc3)cc(C(=O)N3CCC(N)CC3)c12 [Example 166, (4-Amino-piperidin-1-yl)-[3-ethyl-6-(4-hydroxy-phenyl)-1H-pyrazolo[3,4-b]pyridin-4-yl]-methanone] | 87% |
| Cc1n[nH]c2nc(-c3ccc(O)cc3)cc(C(=O)N[C@H]3[C@@H]4CNC[C@@H]43)c12 [Example 214, 6-(4-Hydroxy-phenyl)-3-methyl-1H-pyrazolo[3,4-b]pyridine-4-carboxylic acid (3-azabicyclo[3.1.0]hex-6-yl)-amide] | 73% |
| Cc1n[nH]c2nc(-c3ccc(O)cc3)cc(C(=O)NCCN3CCC(c4ccccc4)CC3)c12 [Example 390, 6-(4-Hydroxy-phenyl)-3-methyl-1H-pyrazolo[3,4-b]pyridine-4-carboxylic acid [2-(4-phenyl-piperidin-1-yl)-ethyl]-amide] | 67% |
| Cc1n[nH]c2nc(-c3ccc(O)cc3)cc(C(=O)N3CCC4(CNCCO4)C3)c12 (stereo not drawn) [Example 253, [6-(4-Hydroxy-phenyl)-3-methyl-1H-pyrazolo[3,4-b]pyridin-4-yl]-(6-oxa-2,9-diaza-spiro[4.5]dec-2-yl)-methanone] | 73% |
| Cc1n[nH]c2nc(-c3ccc(O)cc3F)cc(C(=O)N3CCN[C@H]4CCCC[C@@H]43)c12 [Example 443, [6-(2-Fluoro-4-hydroxy-phenyl)-3-methyl-1H-pyrazolo[3,4-b]pyridin-4-yl]-(4aS,8aS)-octahydro-quinoxalin-1-yl-methanone] | 97% |
| CC[C@H]1CNCCN1C(=O)c1cc(-c2ccc(O)cc2)nc2[nH]nc(C)c12 [Example 20, ((S)-2-Ethyl-piperazin-1-yl)-[6-(4-hydroxy-phenyl)-3-methyl-1H-pyrazolo[3,4-b]pyridin-4-yl]-methanone] | 110% |
| Cc1n[nH]c2nc(-c3ccc(O)cc3)cc(C(=O)NC3CCNCC3)c12 [Example 74, 6-(4-Hydroxy-phenyl)-3-methyl-1H-pyrazolo[3,4-b]pyridine-4-carboxylic acid piperidin-4-ylamide] | 47% |
| Cc1n[nH]c2nc(-c3ccc(O)cc3)cc(C(=O)N(C)C3CCNCC3)c12 [Example 241, 6-(4-Hydroxy-phenyl)-3-methyl-1H-pyrazolo[3,4-b]pyridine-4-carboxylic acid methyl-piperidin-4-yl-amide] | 88% |
| Cc1n[nH]c2nc(-c3ccc(O)cc3)cc(C(=O)NC3CC4(CC(N)C4)C3)c12 (stereo not drawn) [Example 191, 6-(4-Hydroxy-phenyl)-3-methyl-1H-pyrazolo[3,4-b]pyridine-4-carboxylic acid (6-amino-spiro[3.3]hept-2-yl)-amide] | 78% |
| Cc1n[nH]c2nc(-c3ccc(O)cc3)cc(C(=O)N3CCN(C(N)=O)CC3)c12 [Example 54, 4-[6-(4-Hydroxy-phenyl)-3-methyl-1H-pyrazolo[3,4-b]pyridine-4-carbonyl]-piperazine-1-carboxylic acid amide] | 41% |
